The results in this text go back to patent US20070270455A1, “INHIBITION OF NF-kB” (priority 2005, published 2007).

One experiment relates to topoisomerase II. The experiment is described as follows: DNA—Topoisomerase II activity assay. Format: cell-based. The note with it: in vitro; HT1080 cells, 1 h. The method, then: Western blot analysis of total protein lysates was performed using antibodies against p53 (DO1) and against specific sites of phosphorylation in p53. […] HCT116 cells were treated for 30 minutes with 1 μM PS-341. PS-341 was washed off after 30 minutes and cells were re-incubated in drug free medium prior to analysis at 3 hours or 16 hours post-treatment. […] Proteasome activity was determined by measuring the absorbance of free AMC generated by cleavage of an AMC-fluorogenic peptide. The proteasome activity of untreated cells was set at 100%. […] Cell lysates were isolated at the indicated hours after treatment and used for western blotting. Blots were probed with antibodies specific for both phosphorylated and unphosphorylated forms of IκB-α. β-actin specific antibodies were used as a loading control.
HT1080 cells were labeled for 24 hours with 0.02 to 0.04 mCi/mL of [^14C] thymidine, specific activity 53 mCi/mmol (Amersham). […] The induction of topo II-mediated DNA scission was determined by measuring precipitation of the protein DNA complex using a modification of the SDS-KCl technique.

In experiment [1] the test system is HT1080-sip53 and HT1080-siGFP cells. The experiment is described as follows: Cell survival assay in isogenic cell pairs with anti-p53 or control siRNA. The settings on record: anti-p53 vs control siRNA; maximum difference in HT1080 cells. The format is cell-based, human.
A further experiment has as its system HT1080ConALuC tumors. The experiment in a line: p53-dependent luciferase reporter in xenograft tumors. The format is in vivo. The note with it: intraperitoneal; 24 hours; nude mice. The method, then:
HT1080ConALuC cells were inoculated into two flanks of nude mice. When tumors reach 5 mm in diameter, mice were injected intraperitoneally with indicated concentrations of the drugs (mg/kg, 3 mice per group). After 24 hours mice were sacrificed, tumors were isolated, lysed in Reporter Lysis Reagent (Promega) and luciferase activity was measured in […] of tumor proteins. Bars represent fold of induction of luciferase activity in tumors, treated with drugs over luciferase activity in tumors treated with vehicle. FIG. 5B: HT1080sip53 or HT1080siGFP cells were inoculated in the left and right flank of nude mice respectively.
NIH Swiss athymic nude, male mice, 5-6 weeks old were purchased from Harlan. 5×10^6 of tumor cells were inoculated into the flank of mice in 100 μL of PBS. […] As vehicle, 50% DMSO solution in PBS was used. Tumor size was measured in three dimensions every other day.
The in vivo anti-tumor effects of aminoacridines were tested in a xenograft tumor model using HT1080 cells differing in their p53 status and carrying p53 luciferase reporters grown subcutaneously in nude mice.
(A reporter such as luciferase makes a cellular process visible.)

The next experiment deals with HT1080ConALuc cells. The experiment is described as follows: p53-responsive luciferase reporter assay in HT1080 cells. Format: cell-based, human. The source says:
Bars represent folds of p53 responsive reporter induction over untreated controls. Box represents western blot analysis of p53 expression in total protein lysates of both cells variants in basal and doxorubicin treated conditions (to evaluate basal and DNA-damage induced level of p53). […] Fold induction presented as fold of reporter activation over untreated control. […] Fold induction presented as fold of reporter activation over untreated control.
For cotransfection set-up, 2×10^5 cells were plated into 6 well plates and, after overnight incubation, transfected with Lipofectamin Plus reagent (Gibco BRL) with 0.5 μg of reporter plasmids (p21-ConALuc or pNF-κBLuc) in combination with different concentrations of p53, Arf, Ss-IκB, or siHDM2 expressing plasmids. Corresponding empty vectors were added into all transfections up to 2 μg of total DNA amount. Normalization of transfection efficiency was done by adding 0.2 μg of pCMV-LacZ plasmid. Luciferase activity and β-galactosidase activity was measured in lysates prepared 48 hours after transfection with Cell Lysis Buffer (Promega) by luciferase assay system (Promega) or β-galactosidase enzyme system (Promega). Luminometric and colorimetric reactions were read on the Wallack 1420 plate reader (Perkin Elmer). Integrated reporter set-up. 2×10^4 of cells with integrated reporter were plated in 96 well plates. After overnights incubation chemical compounds or media from lentivirus producing cells were added. At different time points cell lysates were prepared using Reporter Lysis Buffer (Promega). Luciferase or β-galactosidase activity and protein concentration were measured in aliquots of cell lysates using standard kits (Promega, Luciferase and β-galactosidase assay systems, Biorad Protein Assay Kit).

In the next experiment the test system is H1299-NF-kBLuc cells. The experiment is described as follows: NF-κB-responsive luciferase reporter assay. The format is cell-based.
The mark [2] stands for this setting: after treatment with the drug, FIG. 3f.

Some results are limits rather than exact numbers.

Turning to `Nc1c2ccccc2nc2ccccc12` [9AA, 9-aminoacridine], the “effect on topoisomerase II activity” value in the experiment on topoisomerase II is “no effect”. The “toxicity in cells differing in p53 status” value in experiment [1] was “less toxic to the cells with reduced p53 expression”. The “activation of p53 in tumors” value with HT1080ConALuC tumors is “capable of activating p53 in tumors”. Further, the “concentration at which p53 was activated” value in the experiment on HT1080ConALuc cells (HT1080ConALuc cells, 24 hours) was no less than 1 µM. In addition, in the experiment on HT1080ConALuc cells (setting [2]), the “time at which p53-dependent transactivation becomes detectable” value turned out to be 12 h and the “time at which p53-dependent transactivation reaches maximum” value was “around 36 hours”. Also, the “TSA-stimulated NF-κB-dependent transcription” value in the experiment on H1299-NF-kBLuc cells (100 nM TSA) is “could not be blocked”. The NF-κB-responsive reporter activity result in the experiment with H1299-NF-kBLuc cells (basal and TNF-induced (10 ng/ml)) was “inhibited basal and TNF-induced activity of the reporter”.
